Assay results published in patent US12622875B2, “Dosage form comprising an alkaline agent and an enteric coating layer” (Evonik Operations GmbH, priority 2019, dated 2026).
Structures can show the parent of a compound that is named as a salt.

Legend:
[1] = Pantoprazole Sodium solution stability at different pH and temperature (HPLC % assay); assay type: physicochemical
[2] = Benazepril HCl API solution stability at different pH and temperature (HPLC % assay); assay type: physicochemical

In the case of COc1ccnc(C[S+]([O-])c2nc3ccc(OC(F)F)cc3[nH]2)c1OC (centres unmarked) [Pantoprazole Sodium], the “% Assay of Pantoprazole Sodium” value ([1]; pH 1.2, 22° C., 15 min) is reported as 27%, the “% Assay of Pantoprazole Sodium” value ([1]; pH 1.2, 22° C., 30 min) is reported as 13% and the “% Assay of Pantoprazole Sodium” value ([1]; pH 1.2, 22° C., 60 min) is reported as 7%. The “% Assay of Pantoprazole Sodium” value ([1]; pH 1.2, 22° C., 120 min) was 5%, the “% Assay of Pantoprazole Sodium” value ([1]; pH 1.2, 22° C., Initial) was 88% and the “% Assay of Pantoprazole Sodium” value ([1]; pH 1.2, 40° C., 15 min) was 17%. The “% Assay of Pantoprazole Sodium” value ([1]; pH 1.2, 40° C., 30 min) was 6%, the “% Assay of Pantoprazole Sodium” value ([1]; pH 1.2, 40° C., 60 min) was 4% and the “% Assay of Pantoprazole Sodium” value ([1]; pH 1.2, 40° C., 120 min) was 3%. For the same compound, the “% Assay of Pantoprazole Sodium” value ([1]; pH 3.0, 22° C., 15 min) was 32%, the “% Assay of Pantoprazole Sodium” value ([1]; pH 3.0, 22° C., 30 min) was 20% and the “% Assay of Pantoprazole Sodium” value ([1]; pH 3.0, 22° C., 60 min) was 5%. The “% Assay of Pantoprazole Sodium” value ([1]; pH 3.0, 22° C., 120 min) was 1%, the “% Assay of Pantoprazole Sodium” value ([1]; pH 3.0, 22° C., Initial) was 81% and the “% Assay of Pantoprazole Sodium” value ([1]; pH 3.0, 40° C., 15 min) was 3%. For the same compound, the “% Assay of Pantoprazole Sodium” value ([1]; pH 3.0, 40° C., 30 min) was 2%, the “% Assay of Pantoprazole Sodium” value ([1]; pH 3.0, 40° C., 60 min) was 2% and the “% Assay of Pantoprazole Sodium” value ([1]; pH 3.0, 40° C., 120 min) was 1%. The “% Assay of Pantoprazole Sodium” value ([1]; pH 4.5, 22° C., 15 min) was 97%, the “% Assay of Pantoprazole Sodium” value ([1]; pH 4.5, 22° C., 30 min) was 96% and the “% Assay of Pantoprazole Sodium” value ([1]; pH 4.5, 22° C., 60 min) was 94%. The “% Assay of Pantoprazole Sodium” value ([1]; pH 4.5, 22° C., 120 min) was 89%, the “% Assay of Pantoprazole Sodium” value ([1]; pH 4.5, 22° C., Initial) was 98% and the “% Assay of Pantoprazole Sodium” value ([1]; pH 4.5, 40° C., 15 min) was 92%. For the same compound, the “% Assay of Pantoprazole Sodium” value ([1]; pH 4.5, 40° C., 30 min) was 89%, the “% Assay of Pantoprazole Sodium” value ([1]; pH 4.5, 40° C., 60 min) was 79% and the “% Assay of Pantoprazole Sodium” value ([1]; pH 4.5, 40° C., 120 min) was 64%. For the same compound, the “% Assay of Pantoprazole Sodium” value ([1]; pH 5.5, 22° C., 15 min) was 98%, the “% Assay of Pantoprazole Sodium” value ([1]; pH 5.5, 22° C., 30 min) was 92% and the “% Assay of Pantoprazole Sodium” value ([1]; pH 5.5, 22° C., 60 min) was 94%. For the same compound, the “% Assay of Pantoprazole Sodium” value ([1]; pH 5.5, 22° C., 120 min) was 88%, the “% Assay of Pantoprazole Sodium” value ([1]; pH 5.5, 22° C., Initial) was 98% and the “% Assay of Pantoprazole Sodium” value ([1]; pH 5.5, 40° C., 15 min) was 97%. For the same compound, the “% Assay of Pantoprazole Sodium” value ([1]; pH 5.5, 40° C., 30 min) was 86%, the “% Assay of Pantoprazole Sodium” value ([1]; pH 5.5, 40° C., 60 min) was 77% and the “% Assay of Pantoprazole Sodium” value ([1]; pH 5.5, 40° C., 120 min) was 53%.
In the case of CCOC(=O)[C@H](CCc1ccccc1)N[C@H]1CCc2ccccc2N(CC(=O)O)C1=O [Benazepril HCl], the “% Assay of Benazepril HCl” value ([2]; pH 1.2, 22° C., Initial) is reported as 101%, the “% Assay of Benazepril HCl” value ([2]; pH 1.2, 40° C., 2 Hour) is reported as 100% and the “% Assay of Benazepril HCl” value ([2]; pH 1.2, 40° C., 4 Hour) is reported as 100%. The “% Assay of Benazepril HCl” value ([2]; pH 1.2, 40° C., 24 Hour) was 99%, the “% Assay of Benazepril HCl” value ([2]; pH 3, 22° C., Initial) was 100% and the “% Assay of Benazepril HCl” value ([2]; pH 3, 40° C., 2 Hour) was 99%. The “% Assay of Benazepril HCl” value ([2]; pH 3, 40° C., 4 Hour) was 99%, the “% Assay of Benazepril HCl” value ([2]; pH 3, 40° C., 24 Hour) was 98% and the “% Assay of Benazepril HCl” value ([2]; pH 4, 22° C., Initial) was 100%. The “% Assay of Benazepril HCl” value ([2]; pH 4, 40° C., 2 Hour) was 99%, the “% Assay of Benazepril HCl” value ([2]; pH 4, 40° C., 4 Hour) was 99% and the “% Assay of Benazepril HCl” value ([2]; pH 4, 40° C., 24 Hour) was 98%. The “% Assay of Benazepril HCl” value ([2]; pH 7, 22° C., Initial) was 100%, the “% Assay of Benazepril HCl” value ([2]; pH 7, 40° C., 2 Hour) was 100% and the “% Assay of Benazepril HCl” value ([2]; pH 7, 40° C., 4 Hour) was 100%. The “% Assay of Benazepril HCl” value ([2]; pH 7, 40° C., 24 Hour) was 97%, the “% Assay of Benazepril HCl” value ([2]; pH 9, 22° C., Initial) was 101% and the “% Assay of Benazepril HCl” value ([2]; pH 9, 40° C., 2 Hour) was 99%. For the same compound, the “% Assay of Benazepril HCl” value ([2]; pH 9, 40° C., 4 Hour) was 99% and the “% Assay of Benazepril HCl” value ([2]; pH 9, 40° C., 24 Hour) was 91%.
